Structures can show the parent of a compound that is named as a salt.
Key:
[1] = test system: cough experimentally induced by electric stimulation of the vagus nerve in the guinea pig; experiment: Antitussive activity: cough induced by electric stimulation of the vagus nerve; assay type: in vivo; settings: for inhibition in vivo at 100 mg/kg / ED50: Cavia porcellus; for inhibition in vivo at 100 mg/kg: 100 mg/kg oral, stimulus 20 and 40 minutes after administration, 6 negative responses = 100%, groups of 6 guinea pigs, read-out: Percentage cough inhibition; for ED50: guinea pig, oral, vagus nerve stimulation, read-out: ED50 (dose which reduces the number of coughs by 50%); for antitussive activity (in words): conclusion from Table 3 results
Protocol: The test consists of stimulating the vagus nerve of the guinea pig and repeating the stimulus 20 and 40 minutes after oral administration of 100 mg/kg of the product under test. 6 Negative responses (3 after 20 minutes and 3 after 40 minutes) represent a cough inhibition of 100%. The test was carried out in groups of 6 animals against groups of control animals (undosed).
In addition, for certain compounds the ED50 was also determined, i.e. that dose which reduces the number of coughs by 50%.

[2] = Acute toxicity, oral; settings: guinea pig, in vivo; guinea pigs, increasing oral dose
Protocol: The acute toxicity of some of compounds of the invention was determined on guinea pigs which had received an increasing oral dose of the compound.

| Structure (SMILES) | inhibition in vivo at 100 mg/kg [1] | ED50 [1] | antitussive activity (in words) [1] | LD50 [2] |
| --- | --- | --- | --- | --- |
| Cc1ccc2c(c1)[C@@]1(C)CCC(=O)[C@@H](NC(=O)CCN3CCN(C)CC3)[C@H]1O2 (relative stereo) [Example 1, 8,9bβ-dimethyl-1,2,3,4,4aβ,9b-hexahydro-4α-[3-(4-methylpiperazin-1-yl)-propionamido]-dibenzofuran-3-one dihydrochloride] | 100% | 32.5 mg/kg | important antitussive activity | 1480 mg/kg |
| Cc1ccc2c(c1)[C@@]1(C)CCC(=O)[C@@H](NC(=O)CN3CCN(C)CC3)[C@H]1O2 (relative stereo) [Example 4] | 43% | – | – | > 800 mg/kg |
| Cc1ccc2c(c1)[C@@]1(C)CCC(=O)[C@@H](NC(=O)CN3CCCC3)[C@H]1O2 (relative stereo) [Example 7] | 17% | – | – | ~800 mg/kg |
| CCN(CC(=O)N[C@@H]1C(=O)CC[C@]2(C)c3cc(C)ccc3O[C@H]12)Cc1ccccc1 (relative stereo) [Example 8] | – | – | – | > 800 mg/kg |
| Cc1ccc2c(c1)[C@@]1(C)CCC(=O)[C@@H](NC(=O)CCN3CCOCC3)[C@H]1O2 (relative stereo) [Example 9] | 39% | – | – | – |
| Cc1ccc2c(c1)[C@@]1(C)CCC(=O)[C@@H](NC(=O)CCN(C)C)[C@H]1O2 (relative stereo) [Example 10, 8,9bβ-dimethyl-1,2,3,4,4aβ,9b-hexahydro-4α-[3-N,N-dimethylamino-propionamido]-dibenzofuran-3-one] | 89% | – | important antitussive activity | 500 to 1000 mg/kg |
| Cc1ccc2c(c1)[C@@]1(C)CCC(=O)[C@@H](NC(=O)CCN3CCCC3)[C@H]1O2 (relative stereo) [Example 11] | 44% | – | – | ~600 mg/kg |
| Cc1ccc2c(c1)[C@@]1(C)CCC(=O)[C@@H](NC(=O)CCN3CCCCC3)[C@H]1O2 (relative stereo) [Example 12] | 46% | – | – | ~400 mg/kg |
| Cc1ccc2c(c1)[C@@]1(C)CCC(=O)[C@@H](NC(=O)CCN3CCNCC3)[C@H]1O2 (relative stereo) [Example 13, 8,9bβ-1,2,3,4,4aβ,9b-hexahydro-4α-[3-piperazinopropionamido]-dibenzofuran-3-one] | 75% | – | – | > 1000 mg/kg |
| CCOC(=O)N1CCN(CCC(=O)N[C@@H]2C(=O)CC[C@]3(C)c4cc(C)ccc4O[C@H]23)CC1 (relative stereo) [Example 14] | 33% | – | – | > 1000 mg/kg |
| Cc1ccc2c(c1)[C@@]1(C)CCC(=O)[C@@H](NC(=O)CCN3CCN(c4ccccc4)CC3)[C@H]1O2 (relative stereo) [Example 15] | 54% | – | – | – |
| Cc1ccc2c(c1)[C@@]1(C)CCC(=O)[C@@H](NC(=O)CCN3CCN(CCO)CC3)[C@H]1O2 (relative stereo) [Example 16] | 17% | – | – | – |
| Cc1ccc2c(c1)[C@@]1(C)CCC(=O)[C@@H](NC(=O)CCN3CCN(Cc4ccccc4)CC3)[C@H]1O2 (relative stereo) [Example 17] | 33% | – | – | > 1000 mg/kg |
| Cc1ccc2c(c1)[C@@]1(C)CCC(=O)[C@@H](NC(=O)CCN(C)CCN(C)C)[C@H]1O2 (relative stereo) [Example 18] | 50% | – | – | > 1000 mg/kg |
| CCN(CC)CCC(=O)N[C@@H]1C(=O)CC[C@]2(C)c3cc(C)ccc3O[C@H]12 (relative stereo) [Example 19] | 33% | – | – | – |
| CC(=O)N1CCN(CCC(=O)N[C@@H]2C(=O)CC[C@]3(C)c4cc(C)ccc4O[C@H]23)CC1 (relative stereo) [Example 20] | 33% | – | – | > 1000 mg/kg |
| CCN1CCN(CCC(=O)N[C@@H]2C(=O)CC[C@]3(C)c4cc(C)ccc4O[C@H]23)CC1 (relative stereo) [Example 21] | – | – | – | > 1000 mg/kg |
| Cc1ccc2c(c1)[C@@]1(C)CCC(=O)[C@@H](NC(=O)CCCN3CCN(C)CC3)[C@H]1O2 (relative stereo) [Example 22, 8,9bβ-dimethyl-1,2,3,4,4aβ,9b-hexahydro-4α-[4-(4-methylpiperazin-1-yl)-butyramido]-dibenzofuran-3-one] | 72% | – | – | – |
| Cc1ccc2c(c1)[C@@]1(C)CCC(=O)[C@@H](NC(=O)CCCN(C)C)[C@H]1O2 (relative stereo) [Example 23] | 67% | – | – | – |
| Cc1ccc2c(c1)[C@@]1(C)CCC(=O)[C@@H](NC(=O)CCCCN(C)C)[C@H]1O2 (relative stereo) [Example 24, 8,9bβ-dimethyl-1,2,3,4,4aβ,9b-hexahydro-4α-[5-N,N-dimethylamino-valeramido]-dibenzofuran-3-one] | 83% | 71 mg/kg | important antitussive activity | – |
| Cc1ccc2c(c1)[C@@]1(C)CCC(=O)[C@@H](NC(=O)CCCCCN(C)C)[C@H]1O2 (relative stereo) [Example 25] | 25% | – | – | – |

Reference: patent US4010268A, “Derivatives of hexahydrodibenzofuran-3-one, their preparation and use in pharmaceutical compositions” (Roussel-UCLAF, priority 1974, dated 1977)
